Tests used:
[1] = Binding affinity against 5-hydroxytryptamine 1A receptor from bovine hippocampus, used [3H]8-OH-DPAT as radioligand
[2] = biological target: 5-hydroxytryptamine receptor 1A (Bos taurus); test: as above

Compound	Ki [1] [nM]	Ki [2] [nM]
CCCN1CC[C@H]2c3c(cccc3OC)CC[C@H]21 [(3aS,9bR) 9-Methoxy-3-propyl-2,3,3a,4,5,9b-hexahydro-1H-benzo[e]indole]	4.4	–
Cc1[nH]c2cccc3c2c1C[C@@H]1C3C[C@H](NC(=O)C(C)(C)C)CN1C (some centres not stated) [SDZ-208-911]	–	19
